One assay concerns the target T1, hLigI (Homo sapiens, UniProt P18858).
T1 construct: made in house
Description: High-throughput fluorescence-based DNA joining (ligation) assay. In kind it is biochemical. To be noted: for inhibition of hLigI (DNA ligase I), in words: in vitro screen, 100 μmol/L, the 15 hLigI inhibitors inhibited by >50%. Put shortly: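 Nicked DNA substrate (10 pmol) was incubated with 0.25 pmol hLigI, with or without 100 μmol/L test compound, in duplicate. Afterwards the DNA was denatured and renatured with a 20-fold excess of unmodified oligonucleotide. Ligation forms an AF488/BHQ1 hairpin, read as reduced fluorescence at 518 nm.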

The next assay deals with T2, human DNA ligase III (Homo sapiens, UniProt P49916).
T2 sequence (P49916 1-862 isoform P49916-4): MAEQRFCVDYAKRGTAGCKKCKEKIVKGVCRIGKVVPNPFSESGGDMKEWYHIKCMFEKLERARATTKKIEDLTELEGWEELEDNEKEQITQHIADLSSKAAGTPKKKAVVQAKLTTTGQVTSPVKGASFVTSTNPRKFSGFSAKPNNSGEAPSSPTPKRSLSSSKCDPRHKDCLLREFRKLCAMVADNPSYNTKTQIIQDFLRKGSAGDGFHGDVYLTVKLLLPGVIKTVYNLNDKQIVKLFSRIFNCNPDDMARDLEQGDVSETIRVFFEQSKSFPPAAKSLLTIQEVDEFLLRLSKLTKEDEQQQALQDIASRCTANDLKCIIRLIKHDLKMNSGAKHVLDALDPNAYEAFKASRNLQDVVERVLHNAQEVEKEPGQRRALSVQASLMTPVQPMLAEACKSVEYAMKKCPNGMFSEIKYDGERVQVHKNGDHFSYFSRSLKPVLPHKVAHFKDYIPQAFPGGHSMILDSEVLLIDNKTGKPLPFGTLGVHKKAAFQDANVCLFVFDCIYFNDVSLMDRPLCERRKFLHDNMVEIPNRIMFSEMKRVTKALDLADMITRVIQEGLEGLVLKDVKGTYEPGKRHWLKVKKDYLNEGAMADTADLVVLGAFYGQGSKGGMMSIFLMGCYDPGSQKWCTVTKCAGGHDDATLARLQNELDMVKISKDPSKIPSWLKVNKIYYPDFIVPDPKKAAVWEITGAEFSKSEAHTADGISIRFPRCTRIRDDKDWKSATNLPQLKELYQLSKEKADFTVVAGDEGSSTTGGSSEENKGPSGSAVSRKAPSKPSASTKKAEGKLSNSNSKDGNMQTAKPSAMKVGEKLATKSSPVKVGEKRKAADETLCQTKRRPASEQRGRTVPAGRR
The description is as above. In kind it is biochemical. The gist of the method:
(§1)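 Ligation joins an AF488-labelled and a BHQ1-labelled oligonucleotide. After denaturation and renaturation with a 20-fold excess of unlabelled competitor strand, the product forms a quenched hairpin, so joining is read as loss of 518 nm fluorescence. Ligase III used a nicked duplex; ligase IV used two duplexes with short complementary single-strand ends.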

A further assay has as its target human DNA ligase IV (Homo sapiens, UniProt P49917). The assay is described as above. The class given is biochemical. Put shortly: as §1
A further assay deals with T3, T4 DNA ligase (Enterobacteria phage T4, UniProt P00970).
T3 construct: purchased NEB
T3 sequence (P00970 1-487): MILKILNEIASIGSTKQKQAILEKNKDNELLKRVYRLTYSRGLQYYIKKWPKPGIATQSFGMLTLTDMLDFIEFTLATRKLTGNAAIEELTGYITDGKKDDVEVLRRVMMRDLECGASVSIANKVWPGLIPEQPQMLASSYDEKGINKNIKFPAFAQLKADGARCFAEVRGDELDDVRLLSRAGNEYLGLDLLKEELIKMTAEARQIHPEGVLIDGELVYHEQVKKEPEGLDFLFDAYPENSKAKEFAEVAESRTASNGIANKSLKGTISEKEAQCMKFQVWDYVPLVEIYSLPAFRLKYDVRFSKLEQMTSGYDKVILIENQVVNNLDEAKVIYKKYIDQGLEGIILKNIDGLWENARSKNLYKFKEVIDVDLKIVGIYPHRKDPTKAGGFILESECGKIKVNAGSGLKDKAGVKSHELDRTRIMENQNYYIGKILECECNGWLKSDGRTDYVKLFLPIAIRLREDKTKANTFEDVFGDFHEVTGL
Description: High-throughput fluorescence-based DNA joining assay, non-specific inhibitor control. In kind it is biochemical, bacteriophage T4. The gist of the method: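 This counter-screen used a FRET-based DNA joining assay. Duplicate reactions held 10 pmol nicked DNA substrate and 10 units T4 DNA ligase, with or without 100 μmol/L compound. T4 ligase lacks the DNA-binding domain targeted in silico, so compounds inhibiting it were flagged as non-specific, likely DNA-binding.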

Setting [1] is: 100 uM, read-out: % activity Inhibition hLigI 100 uM.
[2] abbreviates: 100 μM, read-out: In vitro % inhib hLigI 100.
[3] abbreviates: 100 μM, read-out: In vitro % inhib hLigIII 100.
Where [4] appears, read: 100 uM, Ø not defined (0 in Table 5A).
Setting [5] is: read-out: % of inhibition @ 100 μM (Helen's data) hLigIII.
Where [6] appears, read: 100 μM, read-out: In vitro % inhib hLigIV 100.
[7] abbreviates: 100 μM, read-out: In vitro % inhib T4 100.

The record followed here is patent publication US9757375B2, “Compounds that inhibit human DNA ligases and methods of treating cancer” (University of Maryland, Baltimore, priority 2007, dated 2017).

Structures are written as SMILES. Entries after “also recorded” stand apart in the source; their conditions may differ. Where two headings read alike, the source gives them in different places.

Sequence of human DNA ligase IV (P49917 whole entry): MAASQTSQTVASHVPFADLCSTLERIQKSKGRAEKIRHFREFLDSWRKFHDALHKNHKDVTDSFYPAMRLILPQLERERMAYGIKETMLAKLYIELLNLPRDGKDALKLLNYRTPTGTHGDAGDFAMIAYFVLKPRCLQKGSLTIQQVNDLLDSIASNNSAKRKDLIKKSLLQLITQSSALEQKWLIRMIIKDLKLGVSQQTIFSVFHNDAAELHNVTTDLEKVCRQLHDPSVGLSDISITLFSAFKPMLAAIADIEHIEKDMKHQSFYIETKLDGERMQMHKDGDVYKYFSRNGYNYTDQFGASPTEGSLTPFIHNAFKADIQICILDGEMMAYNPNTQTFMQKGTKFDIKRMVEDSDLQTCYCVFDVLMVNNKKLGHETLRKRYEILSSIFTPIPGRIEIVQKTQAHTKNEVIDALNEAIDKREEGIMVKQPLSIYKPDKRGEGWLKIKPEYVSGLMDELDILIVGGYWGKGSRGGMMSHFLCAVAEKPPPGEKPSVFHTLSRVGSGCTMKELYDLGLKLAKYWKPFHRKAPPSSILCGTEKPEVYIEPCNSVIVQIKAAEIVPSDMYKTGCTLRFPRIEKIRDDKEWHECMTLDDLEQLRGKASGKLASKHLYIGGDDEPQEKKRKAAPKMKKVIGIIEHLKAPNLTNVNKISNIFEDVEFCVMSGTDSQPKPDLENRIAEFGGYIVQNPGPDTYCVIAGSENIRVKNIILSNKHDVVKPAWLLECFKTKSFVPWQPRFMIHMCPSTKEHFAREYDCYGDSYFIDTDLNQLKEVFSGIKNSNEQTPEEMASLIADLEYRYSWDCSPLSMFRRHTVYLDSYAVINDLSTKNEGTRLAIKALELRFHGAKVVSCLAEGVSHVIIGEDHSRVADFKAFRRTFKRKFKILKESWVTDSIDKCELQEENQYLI
Sequence of human DNA ligase IV (Q13426 whole entry partner): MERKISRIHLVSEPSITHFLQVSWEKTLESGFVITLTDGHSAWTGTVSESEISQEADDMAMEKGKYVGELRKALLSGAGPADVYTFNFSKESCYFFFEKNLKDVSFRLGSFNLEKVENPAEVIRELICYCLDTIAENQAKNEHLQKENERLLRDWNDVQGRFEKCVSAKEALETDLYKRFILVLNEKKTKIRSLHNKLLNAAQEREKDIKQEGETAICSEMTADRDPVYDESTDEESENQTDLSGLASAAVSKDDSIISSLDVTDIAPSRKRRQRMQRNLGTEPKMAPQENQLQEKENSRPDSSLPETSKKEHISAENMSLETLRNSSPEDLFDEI
T1 sequence (P18858 whole entry): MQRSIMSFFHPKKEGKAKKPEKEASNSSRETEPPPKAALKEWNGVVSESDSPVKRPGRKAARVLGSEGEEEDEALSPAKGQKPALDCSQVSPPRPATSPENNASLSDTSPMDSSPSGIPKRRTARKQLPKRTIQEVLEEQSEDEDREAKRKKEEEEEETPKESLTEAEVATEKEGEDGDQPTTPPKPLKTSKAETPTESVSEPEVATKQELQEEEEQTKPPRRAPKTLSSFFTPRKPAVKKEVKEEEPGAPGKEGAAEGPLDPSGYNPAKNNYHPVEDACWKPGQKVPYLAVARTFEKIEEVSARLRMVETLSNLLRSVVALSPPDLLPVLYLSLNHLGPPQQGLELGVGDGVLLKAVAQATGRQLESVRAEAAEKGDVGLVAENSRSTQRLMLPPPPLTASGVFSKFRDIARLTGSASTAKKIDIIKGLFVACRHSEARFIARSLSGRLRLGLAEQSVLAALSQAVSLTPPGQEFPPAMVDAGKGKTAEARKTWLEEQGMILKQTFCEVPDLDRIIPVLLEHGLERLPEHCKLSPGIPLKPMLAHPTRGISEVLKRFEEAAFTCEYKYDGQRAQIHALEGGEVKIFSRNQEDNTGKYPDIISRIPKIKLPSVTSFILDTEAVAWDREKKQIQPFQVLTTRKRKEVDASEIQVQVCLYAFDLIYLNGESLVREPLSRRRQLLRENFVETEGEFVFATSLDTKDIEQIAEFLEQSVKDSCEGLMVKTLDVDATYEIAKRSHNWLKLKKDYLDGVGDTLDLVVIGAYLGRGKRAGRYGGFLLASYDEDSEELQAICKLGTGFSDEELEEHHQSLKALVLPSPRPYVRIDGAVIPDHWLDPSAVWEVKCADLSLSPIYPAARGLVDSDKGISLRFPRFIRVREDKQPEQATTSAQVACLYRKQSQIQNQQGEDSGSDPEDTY

`O=C(Cn1cnc([N+](=O)[O-])n1)N/N=C/c1ccc(O)cc1O` [Compound 151]: the inhibition at 100 µM at hLigI (setting [1]) was 25.9 ± 1.2%; on hLigI (100 μM, read-out: % of inhibition @ 100 μM (Helen's data) hLigI) it was 25%; at hLigI (setting [2]), 26 ± 1%; at human DNA ligase III (setting [3]) it was 0%; on human DNA ligase III (setting [5]) it was < 20%; on human DNA ligase IV (100 μM, read-out: % of inhibition @ 100 μM (Helen's data) hLigIV), < 20%. Moreover, the inhibition at 100 µM on human DNA ligase IV (setting [6]) and at T4 DNA ligase (setting [7]) was 0% in each case. Moreover, the “inhibition of hLigI (DNA ligase I), in words” value (shortened to “inhibition of hLigI”) at hLigI is listed as “specific for DNA ligase I”. At human DNA ligase III (setting [4]), the “% activity Inhibition hLigIII 100 uM” value is reported as “Ø”. On human DNA ligase IV (setting [4]), the “% activity Inhibition hLigIV 100 uM” value is reported as “Ø”.

For `O=C1Nc2ccccc2Oc2cc([N+](=O)[O-])cc([N+](=O)[O-])c21` [Compound 180], the “inhibition of hLigI” value at hLigI was “inhibited hLigI”. Further, the figures for the inhibition at 100 µM at hLigI (read-out: % of inhibition @ 100 μM (Helen's data) hLigI), on human DNA ligase III (setting [5]) and at human DNA ligase IV (read-out: % of inhibition @ 100 μM (Helen's data) hLigIV) were 58%, > 40% and < 20%, respectively.

Consider `CS(=O)(=O)NNC(=O)C(=O)NNc1ccccc1` [Compound 184], for which the “% activity Inhibition hLigI 100 uM” value at hLigI (100 uM) is reported as 37.7 ± 12.4%. Moreover, at hLigI (100 μM), the “% of inhibition @ 100 μM (Helen's data) hLigI” value is 38% and the “In vitro % inhib hLigI 100 (μM)” value was determined as 38 ± 12%. Moreover, at hLigI, the “inhibition of hLigI” value is listed as “specific for DNA ligase I”. In addition, on human DNA ligase III (100 μM), the “% of inhibition @ 100 μM (Helen's data) hLigIII” value is “NI (NI- no inhibition)” and the “In vitro % inhib hLigIII 100 (μM)” value came to 0%. Further, the “% activity Inhibition hLigIII 100 uM” value on human DNA ligase III (setting [4]) was “Ø”. Moreover, at human DNA ligase IV (100 μM), the “% of inhibition @ 100 μM (Helen's data) hLigIV” value is “NI (NI- no inhibition)” and the “In vitro % inhib hLigIV 100 (μM)” value is reported as 0%. Besides, the “% activity Inhibition hLigIV 100 uM” value at human DNA ligase IV (setting [4]) is recorded as “Ø”. The “% activity Inhibition LigT4 100 uM” value on T4 DNA ligase (100 uM) is given as 0.42 ± 1.4%. Besides, the “In vitro % inhib T4 100 (μM)” value at T4 DNA ligase (100 μM) came out at 1 ± 1%.

For the molecule `Nc1nc(S)nc(O)c1/N=C/c1ccccc1` [Compound 189], the inhibition at 100 µM at hLigI (setting [1]) is 68.8 ± 4.9%; on hLigI (setting [2]), 69 ± 5%; at human DNA ligase III (setting [3]), 53 ± 5%; at human DNA ligase III (100 uM, Ø not defined (0 in Table 5A), read-out: % activity Inhibition hLigIII 100 uM), 52.6 ± 4.8%; at human DNA ligase IV (setting [6]), 41 ± 6%; on human DNA ligase IV (100 uM, Ø not defined (0 in Table 5A), read-out: % activity Inhibition hLigIV 100 uM) it was > 50%. Besides, the inhibition at 100 µM at T4 DNA ligase (setting [7]) is 3 ± 2%; at T4 DNA ligase (read-out: % activity Inhibition LigT4 100 uM) it was 3.2 ± 1.9%. In addition, the “inhibition of hLigI” value at hLigI is “inhibited hLigI; also recorded: inhibit hLigI but not T4 DNA ligase; also recorded: inhibits all three human DNA ligases; also recorded: inhibit DNA ligase 1”. For the same molecule, the “inhibition of human DNA ligase III, in words” value against human DNA ligase III (in vitro screen) is on record as “inhibits all three human DNA ligases; also recorded: inhibits DNA ligase III”. Moreover, the “inhibition of human DNA ligase IV, in words” value at human DNA ligase IV (in vitro screen) is “inhibits all three human DNA ligases; also recorded: inhibits DNA ligase IV”. In addition, the “inhibition of T4 DNA ligase, in words” value at T4 DNA ligase (in vitro screen, 100 μmol/L) is listed as “inhibit hLigI but not T4 DNA ligase”.
